From ChEMBL document CHEMBL1151021, “Synthesis of potent 6-oxo and 9-fluoro-PGE1-derivatives and their biological properties” (Bioorg Med Chem Lett, 1992)
Active and inactive are the calls of the source. The calls are words filed in the database; no cut-off is given here.

Columns and labels:
[1] = Concentration required for the inhibition of blood platelet aggregation induced by ADP; format: functional
[2] = The compound was evaluated for the affinity towards PGE-2 receptor
[3] = target: T1, Prostaglandin D2 receptor (Homo sapiens) (UniProt Q13258); experiment: The compound was evaluated for the affinity towards PGD-2 receptor
T1 sequence (whole entry): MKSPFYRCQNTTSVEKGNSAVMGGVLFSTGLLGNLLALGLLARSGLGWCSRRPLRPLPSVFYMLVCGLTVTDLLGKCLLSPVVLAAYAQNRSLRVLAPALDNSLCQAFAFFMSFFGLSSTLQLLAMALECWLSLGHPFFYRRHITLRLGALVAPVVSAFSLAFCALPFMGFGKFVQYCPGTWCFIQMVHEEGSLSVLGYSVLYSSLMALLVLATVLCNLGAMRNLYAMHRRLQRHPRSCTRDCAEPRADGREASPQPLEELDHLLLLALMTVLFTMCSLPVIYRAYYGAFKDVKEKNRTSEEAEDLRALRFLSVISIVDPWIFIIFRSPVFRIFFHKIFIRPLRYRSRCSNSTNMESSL

[4] = target: Prostacyclin receptor (Homo sapiens) (UniProt P43119); experiment: The compound was evaluated for the affinity towards Prostaglandin I2 receptor
[5] = The compound was evaluated for the affinity towards PGE-2 receptor; no competition
[6] = target: Prostacyclin receptor (Homo sapiens) (UniProt P43119); experiment: The compound was evaluated for the affinity towards Prostaglandin I2 receptor; no competition
[7] = target: Prostacyclin receptor (Homo sapiens) (UniProt P43119); experiment: The compound was evaluated for the affinity towards Prostaglandin I2 receptor; not parallel

Sequence of Prostacyclin receptor (Homo sapiens) (P43119 whole entry): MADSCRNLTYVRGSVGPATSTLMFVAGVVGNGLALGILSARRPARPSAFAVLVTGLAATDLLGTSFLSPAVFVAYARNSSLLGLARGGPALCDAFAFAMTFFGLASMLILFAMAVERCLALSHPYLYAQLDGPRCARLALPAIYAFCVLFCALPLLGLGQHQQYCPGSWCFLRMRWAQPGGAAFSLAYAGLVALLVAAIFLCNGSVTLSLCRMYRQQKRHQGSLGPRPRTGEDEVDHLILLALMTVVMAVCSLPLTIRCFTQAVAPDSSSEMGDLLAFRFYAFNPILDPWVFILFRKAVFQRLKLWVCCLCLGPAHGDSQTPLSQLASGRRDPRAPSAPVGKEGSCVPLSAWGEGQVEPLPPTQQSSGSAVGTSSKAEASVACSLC

| IC50 [1] [nM] | KF [2] | KF [3] | KF [4] | KF [5] | KF [6] | KF [7] | SMILES |
| --- | --- | --- | --- | --- | --- | --- | --- |
| 1.6 | 140 | 600 | 60 | – | – | – | CC#CCC(C)[C@H](O)/C=C/[C@H]1[C@H](O)CC(=O)[C@@H]1CC(=O)CCCCC(=O)O (some centres undefined) |
| 3 | – | 70 | 58 | inactive | – | – | O=C(O)CCCCC(=O)C[C@H]1C(=O)C[C@@H](O)[C@@H]1/C=C/[C@@H](O)C1CCCCC1 |
| 1000 | – | – | – | – | inactive | – | CC#CC[C@H](C)[C@H](O)/C=C/[C@@H]1[C@@H](CC(=O)CCCCC(=O)O)[C@@H](F)C[C@H]1O |
| 100 | – | – | – | – | – | 200 | CC#CC[C@H](C)[C@H](O)/C=C/[C@@H]1[C@@H](CC(=O)CCCCC(=O)O)[C@H](F)C[C@H]1O |
| 0.09 | 7.5 | – | 5 | – | – | – | CCC#CC[C@H](C)[C@H](O)C#C[C@H]1[C@H](O)CC(=O)[C@@H]1CC(=O)CCCCC(=O)O |
| 20 | 700 | – | – | – | – | 32 | CCC#CC[C@H](C)[C@H](O)C#C[C@@H]1[C@@H](CC(=O)CCCCC(=O)O)[C@H](F)C[C@H]1O |
| 1 | 40 | – | – | – | – | 40 | CC#CC[C@H](C)[C@H](O)/C=C/[C@H]1[C@H](O)CC(=O)[C@@H]1CC(=O)CCCCC(=O)O |
| 7 | 7.1 | – | 129 | – | – | – | CCCCC[C@H](O)/C=C/[C@H]1[C@H](O)CC(=O)[C@@H]1CC(=O)CCCCC(=O)O |
